Results reported in patent publication US20250376472A1, “3-(PHENYLSULFONYL)-[1,2,3]TRIAZOLO[1,5A]QUINAZOLIN-5(4H)-ONE DERIVATIVES” (priority 2022, published 2025).

Legend:
AgrA [1] = target: T1, AgrA (Staphylococcus aureus, UniProt P0A0I7); experiment: cell-based; design: species or system S. aureus
T1 construct: endogenous in cells; host or cells: S. aureus USA300 strain UAMS-1625 carrying a P3-lacZ reporter plasmid

S. aureus [2] = settings: cited from earlier work
S. aureus [3] = settings: after multiple passages with Savirin; cited from earlier work
AgrA [4] = target: T1, AgrA; settings: all four agr groups; cited from earlier work
MRSA USA300 type strain = settings: mice infected with MRSA USA300 type strain, applied multiple times; cited from earlier work
red blood cell (RBC) = settings: cited from earlier work
[5] = IC50 at 40 mg/mL HSA, LB medium supplemented with human serum albumin 40 mg/mL
[6] = IC50 without HSA, LB medium, no human serum albumin, 18 hours incubation

T1 sequence (P0A0I7 whole entry): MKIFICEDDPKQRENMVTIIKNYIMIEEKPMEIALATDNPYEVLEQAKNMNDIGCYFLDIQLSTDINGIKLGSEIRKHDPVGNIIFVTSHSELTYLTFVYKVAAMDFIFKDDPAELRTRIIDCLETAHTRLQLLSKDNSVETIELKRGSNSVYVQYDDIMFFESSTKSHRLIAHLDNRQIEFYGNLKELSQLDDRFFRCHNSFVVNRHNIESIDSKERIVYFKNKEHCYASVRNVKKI

## Cc1ccc(S(=O)(=O)c2nnn3c2[nH]c(=O)c2ccc(N4CCCN(CCC(=O)N5CCOCC5)CC4)cc23)c(C)c1 [Compound 168]
AgrA [1]; 40 mg/mL HSA versus no HSA
  Ratio IC50 (in presence of HSA)/IC50 (in absence of HSA): +++ (+++: ratio ≤ 25)
AgrA [1]; LB medium supplemented with human serum albumin 40 mg/mL
  IC50 at 40 mg/mL HSA: +++ (+++: IC50 ≤ 10 μg/mL)
AgrA [1]; LB medium, no human serum albumin, 18 hours incubation
  IC50 without HSA: ++ (++: 1 μg/mL < IC50 ≤ 5 μg/mL)

## O=C(CN1CCN(c2ccc3c(=O)[nH]c4c(S(=O)(=O)c5ccc(C(F)(F)F)cc5)nnn4c3c2)CC1)N1CCOCC1 [Compound 169]
AgrA [1]; [5]
  IC50: 16.5 to 82.6 µM
AgrA [1]; [6]
  IC50: 1.65 to 8.26 µM

## Cc1ccc(S(=O)(=O)c2nnn3c2[nH]c(=O)c2ccc(N4CCN(CC(=O)NCCc5ccncc5)CC4)cc23)c(C)c1 [Compound 175]
AgrA [1]; [5]
  IC50: 16.6 to 83.2 µM
AgrA [1]; [6]
  IC50: < 1.66 µM

## CC(C)c1ccc(S(=O)(=O)c2nnn3c2nc(O)c2ccccc23)cc1 [Savirin]
S. aureus [2]
  viability of S. aureus: without affecting viability
S. aureus [3]
  resistance development: No resistance was developed
AgrA [4]
  modulation of AgrA-regulated toxin gene transcription (hla, psma, pvl): potent modulator
MRSA USA300 type strain
  abscess size and dermonecrosis: significant reduction
Red blood cell (RBC)
  exotoxin-induced red blood cell (RBC) lysis: inhibited
